Consider 23 molecules from US8163793B2, “Proline derivatives” (Hoffman-La Roche Inc., priority 2009, dated 2012).

In one experiment the target is Cathepsin S (UniProt P25774). As to the kind of experiment: Cathepsin enzyme inhibition assay (fluorogenic peptide substrate Z-Val-Val-Arg-AMC), Cathepsin S. The experiment is classed as biochemical, human and mouse. Conditions: enzyme 1 nM, substrate 20 μM, pH 6.5; read-out: CatS IC50. The method, boiled down: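 Human or mouse cathepsin S (1 nM) was run in 100 mM potassium phosphate pH 6.5 with 5 mM EDTA, 0.001% Triton X-100 and 5 mM DTT. The rise in AMC fluorescence from cleavage was measured, and IC50 values were calculated by standard methods and expressed in μM.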

In a further experiment the target is Cat L (UniProt P07711). As to the kind of experiment: Cathepsin enzyme inhibition assay (fluorogenic peptide substrate Z-Val-Val-Arg-AMC), Cathepsin L. The conditions noted are these: enzyme 1 nM, substrate 20 μM, pH 6.5; read-out: CatL IC50. The experiment is classed as biochemical, human and mouse. The gist of the method:
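Cathepsin L at 1 nM was mixed with compound, then started with 20 μM Z-Val-Val-Arg-AMC in pH 6.5 potassium phosphate with EDTA, Triton X-100 and 5 mM DTT. AMC fluorescence (ex 360/em 465 nm) was followed over 20 min. IC50 is given in μM.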

Where a name gives a salt, the structure may show the parent alone.

On to `CN1CCN(c2ccc(S(=O)(=O)[C@@H]3C[C@@H](C(=O)NC4(C#N)CC4)N(C(=O)C4(c5ccc(Cl)nc5)CC4)C3)c(Cl)c2)CC1` [Example 369, (2S,4R)-4-[2-Chloro-4-(4-methyl-piperazin-1-yl)-benzenesulfonyl]-1-[1-(6-chloro-pyridin-3-yl)-cyclopropanecarbonyl]-pyrrolidine-2-carboxylic acid (1-cyano-cyclopropyl)-amide; Compound with Formic Acid], for which the results for the IC50 at Cathepsin S and at Cat L were 0.07 nM and 26.3 nM, respectively.

Take `CC(C)(C)OC(=O)N1C[C@@H](S(=O)(=O)c2ccccc2C(F)(F)F)C[C@H]1C(=O)NC1(C#N)CC1` [Example 158, (2S,4S)-2-(1-Cyano-cyclopropylcarbamoyl)-4-(2-trifluoromethyl-benzenesulfonyl)-pyrrolidine-1-carboxylic acid tert.-butyl ester]: the IC50 – broadly, the concentration that inhibits the measured activity by half – at Cathepsin S was 120 nM; at Cat L, at least 25000 nM.

Turning to `Cc1ccc(S(=O)(=O)[C@@H]2C[C@@H](C(=O)NC3(C#N)CC3)N(C(=O)OC(C)(C)C)C2)c(C)c1` [Example 39, (2S,4R)-2-(1-Cyano-cyclopropylcarbamoyl)-4-(2,4-dimethyl-benzenesulfonyl)-pyrrolidine-1-carboxylic acid tert-butyl ester], the IC50 on Cathepsin S came out at 2.2 nM; at Cat L, 50200 nM.

For `N#CC1(NC(=O)[C@@H]2C[C@@H](S(=O)(=O)c3ccc(N4CCC(F)(F)CC4)cc3Cl)CN2)CC1` [Example 155, (2S,4R)-4-[2-Chloro-4-(4,4-difluoro-piperidin-1-yl)-benzenesulfonyl]-pyrrolidine-2-carboxylic Acid (1-cyano-cyclopropyl)-amide], the results for the 50% inhibitory concentration (IC50) at Cathepsin S and at Cat L were 2.5 nM and 8320 nM, respectively.

Regarding `N#CC1(NC(=O)[C@@H]2C[C@@H](S(=O)(=O)c3ccccc3C(F)(F)F)CN2c2cc(C3CC3)n[nH]2)CC1` [Example 400, (2S,4R)-1-(5-Cyclopropyl-2H-pyrazol-3-yl)-4-(2-trifluoromethyl-benzenesulfonyl)-pyrrolidine-2-carboxylic acid (1-cyano-cyclopropyl)-amide], the figures for the IC50 on Cathepsin S and on Cat L were 3.3 nM and at least 25000 nM, respectively.

With `N#CC1(NC(=O)[C@@H]2C[C@@H](S(=O)(=O)c3ccc(N4CCNCC4)cc3Cl)CN2C(=O)C2(C(F)(F)F)CC2)CC1` [Example 163, (2S,4R)-4-(2-Chloro-4-piperazin-1-yl-benzenesulfonyl)-1-(1-trifluoromethyl-cyclopropanecarbonyl)-pyrrolidine-2-carboxylic acid (1-cyano-cyclopropyl)-amide formiate], the figures for the IC50 at Cathepsin S and at Cat L were 0.3 nM and 2620 nM, respectively.

On to `Cc1cc(N2C[C@H](S(=O)(=O)c3ccc(N4CC(F)(F)C4)cc3Cl)C[C@H]2C(=O)NC2(C#N)CC2)n(CCc2ccccc2)n1` [Example 483, (2S,4R)-4-[2-Chloro-4-(3,3-difluoro-azetidin-1-yl)-benzenesulfonyl]-1-(5-methyl-2-phenethyl-2H-pyrazol-3-yl)-pyrrolidine-2-carboxylic acid (1-cyano-cyclopropyl)-amide], for which the IC50 at Cathepsin S was found to be 1.34 nM; on Cat L it was 521 nM.

For `C=CCOc1ccccc1S(=O)(=O)[C@@H]1C[C@@H](C(=O)NC2(C#N)CC2)N(C(=O)OC(C)(C)C)C1` [Example 450, (2S,4R)-4-(2-Allyloxy-benzenesulfonyl)-2-(1-cyano-cyclopropylcarbamoyl)-pyrrolidine-1-carboxylic acid tert-butyl ester], the IC50 at Cathepsin S is 675 nM; at Cat L, at least 25000 nM.

Regarding `N#CC1(NC(=O)[C@@H]2C[C@@H](S(=O)(=O)c3ccccc3Cl)CN2C(=O)C2(c3ccc(Cl)cc3F)CC2)CC1` [Example 439, (2S,4R)-1-(1-(4-chloro-2-fluorophenyl)cyclopropanecarbonyl)-4-(2-chlorophenylsulfonyl)-N-(1-cyanocyclopropyl)pyrrolidine-2-carboxamide], the IC50 is 0.895 nM on Cathepsin S and 29.5 nM at Cat L.

For `N#CC1(NC(=O)[C@H]2C[C@H](S(=O)(=O)c3ccccc3C(F)(F)F)CN2c2ccc(F)c(Cl)c2)CC1` [Example 395, (2R,4S)-1-(3-Chloro-4-fluoro-phenyl)-4-(2-trifluoromethyl-benzenesulfonyl)-pyrrolidine-2-carboxylic acid (1-cyano-cyclopropyl)-amide], the IC50 is 155 nM at Cathepsin S and at least 25000 nM at Cat L.

Regarding `Cc1cc(N2C[C@H](S(=O)(=O)c3ccccc3C(F)(F)F)C[C@H]2C(=O)NC2(C#N)CC2)n(Cc2ccccc2)n1` [Example 319, (2S,4R)-1-(2-Benzyl-5-methyl-2H-pyrazol-3-yl)-4-(2-trifluoromethyl-benzenesulfonyl)-pyrrolidine-2-carboxylic acid (1-cyano-cyclopropyl)-amide], the 50% inhibitory concentration (IC50) at Cathepsin S was determined as 1.43 nM; at Cat L, 40800 nM.

`N#CC1(NC(=O)[C@@H]2C[C@@H](S(=O)(=O)c3ccc(-c4ccnc(Cl)c4)cc3C(F)(F)F)CN2C(=O)C2(C(F)(F)F)CC2)CC1` [Example 245, (2S,4R)-4-[4-(2-Chloro-pyridin-4-yl)-2-trifluoromethyl-benzenesulfonyl]-1-(1-trifluoromethyl-cyclopropanecarbonyl)-pyrrolidine-2-carboxylic acid (1-cyano-cyclopropyl)-amide]: the results for the IC50 on Cathepsin S and at Cat L were 0.168 nM and 39200 nM, respectively.

Turning to `Cc1cc(N2C[C@H](S(=O)(=O)c3ccccc3C(F)(F)F)C[C@H]2C(=O)NC2(C#N)CC2)n(C2CCCCC2)n1` [Example 318, (2S,4R)-1-(2-Cyclohexyl-5-methyl-2H-pyrazol-3-yl)-4-(2-trifluoromethyl-benzenesulfonyl)-pyrrolidine-2-carboxylic acid (1-cyano-cyclopropyl)-amide], the IC50 at Cathepsin S is 0.437 nM; on Cat L, 11300 nM.

With `CC(C)CS(=O)(=O)[C@H]1CN[C@H](C(=O)NC2(C#N)CC2)C1` [Example 114, (2S,4R)-4-(2-Methyl-propane-1-sulfonyl)-pyrrolidine-2-carboxylic acid (1-cyano-cyclopropyl)-amide Hydrochloride], the IC50 at Cathepsin S was 3500 nM; on Cat L, at least 25000 nM.

`CC1(C(=O)N2C[C@H](S(=O)(=O)c3ccc(F)cc3C(F)(F)F)C[C@H]2C(=O)NC2(C#N)CC2)CC1` [Example 344, (2S,4R)-4-(4-Fluoro-2-trifluoromethyl-benzenesulfonyl)-1-(1-methyl-cyclopropanecarbonyl)-pyrrolidine-2-carboxylic acid (1-cyano-cyclopropyl)-amide]: the IC50 on Cathepsin S is 0.54 nM; on Cat L, at least 25000 nM.

Turning to `N#CC1(NC(=O)[C@@H]2C[C@@H](S(=O)(=O)c3ccccc3Cl)CN2C(=O)Cn2ccc(C(F)(F)F)n2)CC1` [Example 422, (2S,4R)-4-(2-Chloro-benzenesulfonyl)-1-[2-(3-trifluoromethyl-pyrazol-1-yl)-acetyl]-pyrrolidine-2-carboxylic acid (1-cyano-cyclopropyl)-amide], the IC50 at Cathepsin S was found to be 1.85 nM; on Cat L, 4360 nM.

As for `N#CC1(NC(=O)[C@@H]2C[C@@H](S(=O)(=O)c3ccccc3C(F)(F)F)CN2)CC1` [Example 43, (2S,4R)-4-(2-Trifluoromethyl-benzenesulfonyl)-pyrrolidine-2-carboxylic acid (1-cyano-cyclopropyl)-amide], the IC50 at Cathepsin S was 2.2 nM; on Cat L, at least 25000 nM.

Consider `Cc1cc(N2C[C@H](S(=O)(=O)c3ccccc3C(F)(F)F)C[C@H]2C(=O)NC2(C#N)CC2)n(-c2ccc(Cl)cc2)n1` [Example 194, (2S,4R)-1-[2-(4-Chloro-phenyl)-5-methyl-2H-pyrazol-3-yl]-4-(2-trifluoromethyl-benzenesulfonyl)-pyrrolidine-2-carboxylic acid (1-cyano-cyclopropyl)-amide], for which the IC50 at Cathepsin S was found to be 0.4 nM; on Cat L it was 16600 nM.

Take `CC(Oc1ccc(S(=O)(=O)[C@@H]2C[C@@H](C(=O)NC3(C#N)CC3)N(C=O)C2)c(Cl)c1)C(F)(F)F` (stereo partly drawn) [Example 150, (2S,4R)-4-[2-Chloro-4-(2,2,2-trifluoro-1-methyl-ethoxy)-benzenesulfonyl]-1-formyl-pyrrolidine-2-carboxylic acid (1-cyano-cyclopropyl)-amide]: the figures for the IC50 on Cathepsin S and on Cat L were 1.7 nM and 27900 nM, respectively.

For `N#CC1(NC(=O)[C@@H]2C[C@@H](S(=O)(=O)c3ccc(F)cc3F)CN2)CC1` [Example 17, (2S,4R)-4-(2,4-Difluoro-benzenesulfonyl)-pyrrolidine-2-carboxylic acid (1-cyano-cyclopropyl)-amide Hydrochloride], the IC50 on Cathepsin S was 32 nM; at Cat L, at least 25000 nM.

With `N#CC1(NC(=O)[C@@H]2C[C@@H](S(=O)(=O)c3ccc(-n4ccncc4=O)cc3C(F)(F)F)CN2)CC1` [Example 32, (2S,4R)-4-[4-(2-Oxo-2H-pyrazin-1-yl)-2-trifluoromethyl-benzenesulfonyl]-pyrrolidine-2-carboxylic acid (1-cyano-cyclopropyl)-amide hydrochloride], the IC50 was 5 nM on Cathepsin S and at least 25000 nM on Cat L.

Turning to `N#CC1(NC(=O)[C@@H]2C[C@@H](S(=O)(=O)c3ccccc3Cl)CN2C(=O)Cc2ccc(Cl)c(F)c2)CC1` [Example 444, (2S,4R)-4-(2-Chloro-benzenesulfonyl)-1-[2-(4-chloro-3-fluoro-phenyl)-acetyl]-pyrrolidine-2-carboxylic acid (1-cyano-cyclopropyl)-amide], the IC50 on Cathepsin S was determined as 0.895 nM; at Cat L, 260 nM.

`Cc1ccc(C(=O)N2C[C@H](S(=O)(=O)c3ccccc3C(F)(F)F)C[C@H]2C(=O)NCC#N)cc1` [Example 66, (2S,4R)-1-(4-Methyl-benzoyl)-4-(2-trifluoromethyl-benzenesulfonyl)-pyrrolidine-2-carboxylic acid cyanomethyl-amide]: the IC50 at Cathepsin S is 0.6 nM; at Cat L, at least 25000 nM.
